Measurements taken from paper PMC7251097, “Aspartate/asparagine-β-hydroxylase: a high-throughput mass spectrometric assay for discovery of small molecule inhibitors” (Scientific Reports, 2020).
Structures can show the parent of a compound that is named as a salt. Where two headings read alike, the source gives them in different places.

Target: T1, His6-AspH315–758 (human aspartate/asparagine-β-hydroxylase, AspH) (Homo sapiens, UniProt Q12797)
T1 construct: N-Terminally His6-tagged human AspH315–758 (His6-AspH315–758) was produced in E. coli BL21 (DE3) cells; made in house; host or cells: E. coli BL21 (DE3), pET-28a(+) vector
T1 sequence (Q12797 315-758): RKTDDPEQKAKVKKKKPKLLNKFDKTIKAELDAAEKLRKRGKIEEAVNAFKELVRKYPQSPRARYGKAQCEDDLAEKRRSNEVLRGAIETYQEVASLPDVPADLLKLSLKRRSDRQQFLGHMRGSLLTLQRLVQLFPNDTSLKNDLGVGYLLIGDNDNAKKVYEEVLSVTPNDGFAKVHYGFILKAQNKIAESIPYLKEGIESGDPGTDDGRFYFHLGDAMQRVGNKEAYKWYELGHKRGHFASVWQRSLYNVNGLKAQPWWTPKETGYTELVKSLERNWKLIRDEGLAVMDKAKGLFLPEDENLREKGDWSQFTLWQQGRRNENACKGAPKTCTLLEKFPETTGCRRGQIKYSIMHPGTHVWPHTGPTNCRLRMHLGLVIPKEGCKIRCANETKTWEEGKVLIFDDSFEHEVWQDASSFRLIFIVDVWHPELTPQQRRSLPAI
Test: SPE-MS AspH inhibition assay (LOPAC screen at fixed 20 μM and IC50 dose-response), hydroxylation of cyclic peptide hFX-CP101–119
Format: biochemical
Conditions: for Plate 5 (% inhibition) / Plate 5 (% conversion): plate 5 (Pfitzer), test compounds at fixed 20 μM; for Plate 5 (% conversion): mean conversion DMSO 32.88; for Plate 2 (% inhibition): normalised to DMSO and 2,4-PDCA controls; for Plate 1 (% inhibition) / Plate 1 (% conversion): LOPAC compound at fixed 20 uM; for Plate 1 (% inhibition): plate 1, normalised to DMSO and 2,4-PDCA controls

[1] = LOPAC Plate 4, compound at 20 uM, substrate conversion
[2] = LOPAC Plate 4, compound at 20 uM, read-out: % inhibition
[3] = LOPAC Plate 4, compound at 20 uM
[4] = LOPAC compound at 20uM, plate 2, conversion of substrate peptide
[5] = LOPAC compound at 20uM, plate 2

## N#C/C(=C\c1ccc(O)c(O)c1)C(N)=S [Tyrphostin 47, reference compound]
  % conversion: 2.14%
  inhibition at 20 µM: 101%
read-out: Inhibition at 20 µM [%]
  inhibition at 20 µM: 101%

## N#CC(C#N)=C(N)/C(C#N)=C/c1cc(O)c(O)c(O)c1 [Tyrphostin 51, reference compound]
AspH activity, fixed compound concentration 20 μM, initial LOPAC screen, 0.5%v/v DMSO, read-out: Inhibition at 20 µM [%]
  inhibition at 20 µM: 101%
[1]
  % conversion: 2.15%
[2]
  inhibition at 20 µM: 101%

## N#CC(C#N)=C(N)/C(C#N)=C/c1ccc(O)cc1 [Tyrphostin AG 112]
[3]
  % inhibition: -1.91%
[1]
  % conversion: 37.12%

## N#C/C(=C\c1ccc(O)c(O)c1)C(=O)c1ccc(O)c(O)c1 [Tyrphostin AG 538]
[1]
  % conversion: 29.27%

## CC(C)(C)c1cc(/C=C(\C#N)C(N)=S)cc(C(C)(C)C)c1O [Tyrphostin AG 879]
[1]
  % conversion: 26.24%

## COc1cc2ncnc(Nc3cccc(Cl)c3)c2cc1OC [Tyrphostin AG 1478]
[1]
  % conversion: 38.87%
[2]
  inhibition at 20 µM: -7.04%

## N#CC(=C(/N)Sc1ccccc1N)/C(C#N)=C(/N)Sc1ccccc1N [U0126]
[3]
  % inhibition: -0.28%
[1]
  % conversion: 36.57%

## COc1ccc2c(c1)CC[C@@H]1[C@@H]2CC[C@]2(C)[C@@H](NCCCCCCN3C(=O)CCC3=O)CC[C@@H]12 [U-73343]
  Plate 3 (% conversion): 43.26%

## C[C@]12C=CC(=O)C=C1CC[C@@H]1C2=CC[C@]2(C)[C@@H](C(=O)CN3CCN(c4cc(N5CCCC5)nc(N5CCCC5)n4)CC3)CC[C@@H]12.O=C(O)/C=C\C(=O)O [U-74389G maleate]
  % conversion: 25.11%
[3]
  % inhibition: 33.28%

## CCCN(CCC)C1Cc2cc(OC)c(OC)cc2C1.O=C(O)/C=C\C(=O)O [U-99194A maleate]
[3]
  % inhibition: 4.59%
[1]
  % conversion: 34.90%

## CC(C)Oc1cccnc1N(C)C1CCN(Cc2ccccc2)CC1.O=C(O)/C=C\C(=O)O [U-101958 maleate]
[1]
  % conversion: 35.76%

## Brc1c(NC2=NCCN2)ccc2nccnc12 [UK 14,304]
  % conversion: 39.75%
20 µM
  % inhibition: -9.62%

## N#C/C(=C\c1cn(-c2ccccc2)c2ccccc12)C(=O)O [UK-5099]
  Plate 5 (% inhibition): 37.56%
  Plate 5 (% conversion): 23.53%

## Cc1cc(CCC[C@H](CC(=O)NO)C(=O)N[C@H](C(=O)N[C@H](C)c2ccccc2)C(C)(C)C)ccc1-c1ccccc1 [UK-356618]
  Plate 5 (% inhibition): 84.86%
  Plate 5 (% conversion): 7.43%

## NC(=O)c1noc([C@H](CCCC2CCCCC2)CC(=O)NO)n1 [UK-383367]
  Plate 5 (% inhibition): 50.83%
  Plate 5 (% conversion): 19.02%

## COc1ccccc1N1CCN(CCCNc2cc(=O)n(C)c(=O)n2C)CC1 [Urapidil hydrochloride]
[1]
  % conversion: 27.32%

## COc1ccccc1N1CCN(CCCNc2c(C)c(=O)n(C)c(=O)n2C)CC1 [Urapidil, 5-Methyl-]
  % conversion: 36.82%

## O=c1ccn([C@@H]2O[C@H](COP(=O)([O-])OP(=O)([O-])O)[C@@H](O)[C@H]2O)c(=O)[nH]1.[Na+].[Na+] [Uridine 5-diphosphate sodium]
[3]
  % inhibition: -0.23%
[1]
  % conversion: 36.55%

## C[C@H](N)CN1CCc2ccc(Br)cc21.C[C@H](N)CN1CCc2ccc(Br)cc21.O=C(O)/C=C/C(=O)O [VER-3323 hemifumarate salt]
  Plate 3 (% conversion): 21.58%

## Cc1onc(-c2ccccc2)c1-c1ccc(S(N)(=O)=O)cc1 [Valdecoxib]
  Plate 5 (% inhibition): 27.98%
  Plate 5 (% conversion): 26.79%

## CC(C)C(N)C(=O)OCC(CO)OCn1cnc2c(=O)[nH]c(N)nc21.Cl.O (centres unmarked) [Valganciclovir hydrochloride hydrate]
[4]
  Plate 2 (% conversion): 38.77%
[5]
  Plate 2 (% inhibition): -8.41%

## CCCC(CCC)C(=O)O [Valproic acid sodium]
LOPAC compound at 20uM, plate 3, conversion of substrate peptide
  Plate 3 (% conversion): 37.52%

## CCN(CC)C(=O)c1ccc(O)c(OC)c1 [Vanillic acid diethylamide]
[4]
  Plate 2 (% conversion): 35.22%
[5]
  Plate 2 (% inhibition): 2.19%

## O=C(O)C(O)C(O)C(=O)O.c1cnc2cc3c(cc2n1)[C@@H]1CNC[C@H]3C1 [Varenicline tartrate]
  Plate 1 (% inhibition): 66.93%
Substrate conversion
  Plate 1 (% conversion): 13.40%

## c1cnc2cc3c(cc2n1)[C@@H]1CNC[C@H]3C1 [Varenicline]
  Plate 5 (% inhibition): 75.86%
  Plate 5 (% conversion): 10.50%

## COc1ccc(C(CN(C)C)C2(O)CCCCC2)cc1 (centres unmarked) [Venlafaxine hydrochloride]
  Plate 2 (% conversion): 36.45%
read-out: Plate 2 (% inhibition)
  inhibition at 20 µM: -1.48%

## CC[C@]1(O)C[C@@H]2CN(CCc3c([nH]c4ccccc34)[C@@](C(=O)OC)(c3cc4c(cc3OC)N(C)[C@H]3[C@@](O)(C(=O)OC)[C@H](OC(C)=O)[C@]5(CC)C=CCN6CC[C@]43[C@@H]65)C2)C1.O=S(=O)(O)O [Vinblastine sulfate salt]
  % conversion: 54.00%
20 µM
  % inhibition: -51.36%

## CC[C@]1(O)C[C@H]2CN(CCc3c([nH]c4ccccc34)[C@@](C(=O)OC)(c3cc4c(cc3OC)N(C=O)[C@H]3[C@@](O)(C(=O)OC)[C@H](OC(C)=O)[C@]5(CC)C=CCN6CC[C@]43[C@@H]65)C2)C1 [Vincristine sulfate]
[1]
  % conversion: 40.04%
[2]
  inhibition at 20 µM: -10.5%

## CCOC(=O)C1=C[C@]2(CC)CCCN3CCc4c(n1c1ccccc41)[C@@H]32 [Vinpocetine]
[1]
  % conversion: 29.87%

## C[C@@H](c1ncncc1F)[C@](O)(Cn1cncn1)c1ccc(F)cc1F [Voriconazole]
  Plate 1 (% inhibition): -9.17%
  Plate 5 (% inhibition): -1.65%
  Plate 5 (% conversion): 36.88%
Substrate conversion
  Plate 1 (% conversion): 38.95%

## COc1ccccc1N1CCN(CCN(C(=O)C2CCCCC2)c2ccccn2)CC1.O=C(O)/C=C\C(=O)O [WAY-100635 maleate]
  % conversion: 42.39%
20 µM
  % inhibition: -17.34%

## C#C[C@]1(O)CC[C@H]2[C@@H]3CCC4=Cc5nc6nc7ccccc7n6cc5C[C@]4(C)[C@H]3CC[C@@]21C [WIN 62,577]
  % conversion: 37.03%
20 µM
  % inhibition: -1.63%

## COC[C@H]1OC(=O)c2coc3c2[C@@]1(C)C1=C(C3=O)[C@@H]2CCC(=O)[C@@]2(C)C[C@H]1OC(C)=O [Wortmannin from Penicillium funiculosum]
  % conversion: 29.28%

## COc1cc(/C=C(\C#N)C(=O)Nc2nnc(C(F)(F)F)s2)ccc1OCc1ccc(C(F)(F)F)cc1C(F)(F)F [XCT790]
[1]
  % conversion: 22.43%

## Cc1cccc(C)c1N=C1NCCCS1 [Xylazine hydrochloride]
  % conversion: 33.11%

## Cc1cc(C(C)(C)C)cc(C)c1CC1=NCCN1 [Xylometazoline hydrochloride]
  % conversion: 31.88%

## CCc1ccc2c(-c3cccc(Cl)c3)nc(=O)n(CC)c2n1 [YM 976]
  Plate 1 (% inhibition): -17.07%
Substrate conversion
  Plate 1 (% conversion): 41.61%
